The series in a line: Pharmacokinetic evaluation following intravenous and oral administration in rats. It is filed as in vivo. Particulars: male, Sprague-Dawley, plasma, rat; for bioavailability: AUCinf (PO)/AUCinf (IV), dose normalized, PO 5 mg/kg, read-out: Oral Bioavailability F (%); for clearance: non-compartmental analysis, read-out: In vivo Clearance (converted). As to the method: Male Sprague-Dawley rats are acclimatized for at least 24 hours prior to experiment initiation. During acclimation period, all animals receive food and water ad libitum. However, food but not water is removed from the animal's cages at least 12 hours before initiation of the experiment. During the first 3 hours of experimentation, the animals receive only water ad libitum. At least three animal each are tested for intravenous and oral dosage. For intravenous formulation, compounds were dissolved (0.25 to 1 mg/mL) in a mixture of 3% dimethyl sulfoxide, 40% PEG 400 and the rest percentage of 40% Captisol in water (w/v). For oral formulation, compounds of this invention are dissolved (2 mg/mL) in a mixture of 5% of 10% Tween 80 in water (v/v) and 95% of 0.5% methyl cellulose in water (w/v). The animals are weighed before dosing. The determined body weight is used to calculate the dose volume for each animal.
Dose volume(mL/kg)=1 mg/kg/formulation concentration(mg/mL)
In instances where the formulation concentrations were less than 0.5 mg/mL, the dosing volume is about 2 mL/kg. PO rats are typically dosed through oral gavage at 2.5 mL/kg to achieve a dose level of 5 mg/kg. For IV dosing, blood samples are collected (using a pre-heparinized syringe) via the jugular vein catheter at 2, 5, 15, 30, 60, 120, 180, 300, 480, and 1440 minutes post dosing. For PO dosing, blood samples are collected (using a pre-heparinized syringe) via the jugular vein catheter before dosing and at 5, 15, 30, 60, 120, 180, 300, 480, and 1440 minutes post dosing. About 250 uL of blood is obtained at each time point from the animal. Equal volumes of 0.9% normal saline are replaced to prevent dehydration. The whole blood samples are maintained on ice until centrifugation. Blood samples are then centrifuged at 14,000 rpm for 10 minutes at 4° C. and the upper plasma layer transferred into a clean vial and stored at −80° C. The resulting plasma samples are then analyzed by liquid chromatography-tandem mass spectrometry. Following the measurement of plasma samples and dosing solutions, plasma concentration-time curve is plotted. Plasma exposure is calculated as the area under the concentration-time curve extrapolated to time infinite (AUCinf). The AUCinf is averaged and the oral bioavailability (% F) for individual animal is calculated as:
AUCinf (PO)/AUCinf (IV), normalized to their respective dose levels. The % F is reported as the mean % F of all animals dosed orally with the compound of the invention at the specified level (Table 6).
In vivo clearance in the rat was calculated by conducting a non-compartmental analysis of the pharmacokinetic profile using WinNonlin software.

By bioavailability is commonly meant the share of a dose that reaches the circulation, judged against a reference dose that is usually intravenous.

As for `Cc1cc(C#CC(C)(C)C)ccc1C(=O)Nc1ccc2c(c1)OC[C@@H](CO)N2` [Compound 184], the bioavailability turned out to be 17% and the clearance is 35.2 mL/min/kg.

Turning to `O=C(Nc1ccc2c(c1)OCC(CO)N2)c1ccc(/C=C/C(F)(F)F)cc1Cl` (stereo not drawn) [Compound 157], the bioavailability was 83% and the clearance is 15.6 mL/min/kg. As to `CC(C)(C)C#Cc1ccc(C(=O)Nc2ccc3c(c2)OC[C@H](CO)N3)c(F)c1` [Compound 172], the bioavailability stood at 76% and the clearance is 41.2 mL/min/kg. For the compound `O=C(Nc1ccc2c(c1)OCC(CO)N2)c1ccc(C#CC2CC2)cc1F` (stereo not drawn) [Compound 127], the bioavailability was 66% and the clearance was 30.9 mL/min/kg. In the same order, the values of `Cc1cc(C#CC2CCCC2)ccc1C(=O)Nc1ccc2c(c1)OCC(CO)N2` (stereo not drawn) [Compound 125] are 17% and 33.7 mL/min/kg.

As to `O=C(Nc1cccc2cnccc12)c1ccc(/C=C/C(F)(F)F)cc1F` [Compound 160], the bioavailability was 22% and the clearance is 85.4 mL/min/kg.

For `Cc1nc2cc(NC(=O)c3ccc(C#CC(C)(C)C)cc3C)ccc2s1` [Compound 162], the bioavailability turned out to be 2% and the clearance is 44.3 mL/min/kg.

On to `Cc1cc(C#CC(C)(C)C)ccc1C(=O)Nc1cnc2ccccc2c1` [Compound 181], for which the bioavailability amounted to 1% and the clearance is 41.8 mL/min/kg. As for `CC(C)(C)C#Cc1ccc(C(=O)Nc2ccc3c(c2)OCC(CO)N3)c(F)c1` (stereo not drawn) [Compound 138], the bioavailability was 36% and the clearance is 38.7 mL/min/kg. Take `O=C(Nc1ccc2c(c1)OCC(CO)N2)c1ccc(C#CC2CCCC2)cc1F` (stereo not drawn) [Compound 126]: the bioavailability is 35% and the clearance is 44.9 mL/min/kg.

Turning to `Cc1cc(/C=C/C(F)(F)F)ccc1C(=O)Nc1ccc2c(c1)OCCN2` [Compound 118], the clearance is 17.7 mL/min/kg.

Regarding `COc1cc(/C=C/C(F)(F)F)ccc1C(=O)Nc1ccc2c(c1)OCCO2` [Compound 123], the clearance was 32 mL/min/kg. As to `Cc1cc(/C=C/C(F)(F)F)ccc1C(=O)Nc1ccc2cc(CO)cnc2c1` [Compound 228], the bioavailability came to 39% and the clearance was 37.4 mL/min/kg.

Regarding `CC(C)(C)C#Cc1ccc(C(=O)Nc2ccc3c(c2)OCC(CO)N3)c(Cl)c1` (stereo not drawn) [Compound 158], the bioavailability came out at 42% and the clearance was 13 mL/min/kg. In the same order, the values of `Cc1cc(/C=C/C(F)(F)F)ccc1C(=O)Nc1ccc2cccnc2c1` [Compound 224] are more than 100% and 9.97 mL/min/kg. On to `Cc1cc(C#CC(C)(C)C)ccc1C(=O)Nc1cccc2cnccc12` [Compound 163], for which the bioavailability turned out to be 53% and the clearance was 110 mL/min/kg. In the same order, the values of `O=C(Nc1ccc2c(c1)OCC(CO)N2)c1c(F)cc(C#CC2CC2)cc1F` (stereo not drawn) [Compound 129] are 68% and 1.88 mL/min/kg.

Regarding `CC(C)(C)C#Cc1ccc(C(=O)Nc2cnc3ccccc3c2)c(Cl)c1` [Compound 164], the bioavailability stood at 1% and the clearance is 33.5 mL/min/kg. In the same order, the values of `Cc1nc2cc(NC(=O)c3ccc(/C=C/C(F)(F)F)cc3C)ccc2s1` [Compound 188] are 8% and 7.7 mL/min/kg. Regarding `O=C(Nc1ccc2c(c1)OCCN2)c1ccc(/C=C/C(F)(F)F)cc1F` [Compound 134], the bioavailability was 63% and the clearance is 85.1 mL/min/kg. `O=C(Nc1ccc2c(c1)OCC(CO)N2)c1ccc(/C=C/C(F)(F)F)cc1F` (stereo not drawn) [Compound 144]: the bioavailability came to 68% and the clearance was 31.5 mL/min/kg. For `COc1cc(/C=C/C(F)(F)F)ccc1C(=O)Nc1ccc2c(c1)OCCN2` [Compound 122], the clearance was 61 mL/min/kg. Consider `Cc1cc(/C=C/C(F)(F)F)ccc1C(=O)Nc1ccc2c(c1)OCC(CO)N2` (stereo not drawn) [Compound 131], for which the bioavailability was more than 100% and the clearance was 21.6 mL/min/kg. Turning to `Cc1cc(C#CC2CC2)ccc1C(=O)Nc1ccc2c(c1)OCC(CO)N2` (stereo not drawn) [Compound 124], the bioavailability turned out to be 67% and the clearance was 20.7 mL/min/kg.

Values taken from patent publication US20100004222A1, “Amide Derivatives as Ion-Channel Ligands and Pharmaceutical Compositions and Methods of Using the Same” (Renovis, Inc., priority 2006, published 2010).
